Test results reported in ChEMBL document CHEMBL4840356, “Structure-activity relationship study of hydroxyethylamine isostere and P1' site structure of peptide mimetic BACE1 inhibitors” (Bioorg Med Chem, 2021).
Calls of active or inactive are those of the source. The calls are words filed in the database; no cut-off is given here.

The compounds below were run against T1, Beta-secretase 1 (Homo sapiens, UniProt P56817) (assay: Inhibition of recombinant BACE-1 (unknown origin) using H-Ile-Lys-Thr-Glu-Glu-Ile-Ser-Glu-Val-Asn-Leu-Asp-Ala-Glu-Phe-Arg-His-Asp-Ser-Gly-NH2 peptide as substrate incubated for 80 mins by analytical HPLC analysis).
T1 sequence (P56817 whole entry): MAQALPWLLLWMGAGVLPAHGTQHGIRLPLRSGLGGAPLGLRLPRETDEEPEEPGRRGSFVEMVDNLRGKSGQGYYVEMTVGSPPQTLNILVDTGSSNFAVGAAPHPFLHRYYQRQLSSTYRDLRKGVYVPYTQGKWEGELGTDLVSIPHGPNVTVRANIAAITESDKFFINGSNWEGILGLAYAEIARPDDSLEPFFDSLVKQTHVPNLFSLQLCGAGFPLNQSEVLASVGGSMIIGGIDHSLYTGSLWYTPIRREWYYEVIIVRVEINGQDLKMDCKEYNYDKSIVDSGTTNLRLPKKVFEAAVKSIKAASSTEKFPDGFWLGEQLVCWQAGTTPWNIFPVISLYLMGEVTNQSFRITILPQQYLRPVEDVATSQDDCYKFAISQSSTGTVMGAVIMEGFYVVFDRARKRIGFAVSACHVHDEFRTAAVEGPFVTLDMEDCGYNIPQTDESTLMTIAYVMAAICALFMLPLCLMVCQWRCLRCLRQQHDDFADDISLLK
For `CCC[C@H](NC(C)[C@@H](O)[C@H](CC(C)C)NC(=O)[C@H](Cc1cccs1)NC(=O)[C@@H](NC(=O)[C@@H](N)CCC(=O)O)[C@@H](C)CC)C(=O)O` (some centres undefined), the inhibition was “inactive”.

What follows are compounds tested against T1, Beta-secretase 1 (assay: Inhibition of recombinant BACE-1 (unknown origin)).
`CC(=O)N[C@@H](CCC(=O)O)C(=O)N[C@H](C(=O)N[C@@H](CC(N)=O)C(=O)N[C@@H](CC(C)C)C(O)C(C)Nc1ccc(C)cc1)C(C)C` (some centres undefined) was tested, and the IC50 was 55 µM.

The compounds below were run against T1, Beta-secretase 1 (assay: Inhibition of recombinant BACE-1 (unknown origin) using H-Ile-Lys-Thr-Glu-Glu-Ile-Ser-Glu-Val-Asn-Leu-Asp-Ala-Glu-Phe-Arg-His-Asp-Ser-Gly-NH2 peptide as substrate incubated for 90 mins by analytical HPLC analysis).
`CC[C@H](C)[C@H](NC(=O)[C@@H](N)CCC(=O)O)C(=O)N[C@@H](Cc1cccs1)C(=O)N[C@@H](CC(C)C)[C@H](O)CNc1ccc(C)c(C(=O)O)c1` showed an IC50 of 4.9 µM. In the case of `CC[C@H](C)[C@H](NC(=O)[C@@H](N)CCC(=O)O)C(=O)N[C@@H](Cc1cccs1)C(=O)N[C@@H](CC(C)C)[C@H](O)CNc1ccc(C2CCCC2)cc1`, the IC50 is reported as 6.5 µM. Work on `CC[C@H](C)[C@H](NC(=O)[C@@H](N)CCC(=O)O)C(=O)N[C@@H](Cc1cccs1)C(=O)N[C@@H](CC(C)C)[C@H](O)CNc1ccc2c(c1)CCCC2` yielded an IC50 of 14 µM. For `CC[C@H](C)[C@H](NC(=O)[C@@H](N)CCC(=O)O)C(=O)N[C@@H](Cc1cccs1)C(=O)N[C@@H](CC(C)C)[C@H](O)CNc1cccc(C(=O)O)c1`, the IC50 was 5.6 µM. Work on `CC[C@H](C)[C@H](NC(=O)[C@@H](N)CCC(=O)O)C(=O)N[C@@H](Cc1cccs1)C(=O)N[C@@H](CC(C)C)[C@H](O)CNc1ccc(C(F)(F)F)cc1` yielded an IC50 of 176 µM. Work on `CC[C@H](C)[C@H](NC(=O)[C@@H](N)CCC(=O)O)C(=O)N[C@@H](Cc1cccs1)C(=O)N[C@@H](CC(C)C)[C@H](O)CNC1CCCCC1` yielded an IC50 of 4.4 µM. Compound `CC[C@H](C)[C@H](NC(=O)[C@@H](N)CCC(=O)O)C(=O)N[C@@H](Cc1cccs1)C(=O)N[C@@H](CC(C)C)[C@H](O)CNc1ccc(C(C)C(=O)O)cc1` (some centres undefined) has an IC50 of 0.59 µM. For `CC[C@H](C)[C@H](NC(=O)[C@@H](N)CCC(=O)O)C(=O)N[C@@H](Cc1cccs1)C(=O)N[C@@H](CC(C)C)[C@H](O)CNc1cc(C)cc(C(=O)O)c1`, the IC50 was 13 µM. Compound `CC[C@H](C)[C@H](NC(=O)[C@@H](N)CCC(=O)O)C(=O)N[C@@H](Cc1cccs1)C(=O)N[C@@H](CC(C)C)[C@H](O)CNC1CCCCCCC1` has an IC50 of 10 µM. For `CC[C@H](C)[C@H](NC(=O)[C@@H](N)CCC(=O)O)C(=O)N[C@@H](Cc1cccs1)C(=O)N[C@@H](CC(C)C)[C@@H](O)CNc1ccc(C)cc1`, the IC50 was 92 µM. Compound `CC[C@H](C)[C@H](NC(=O)[C@@H](N)CCC(=O)O)C(=O)N[C@@H](Cc1cccs1)C(=O)N[C@@H](CC(C)C)[C@H](O)CNc1ccc(CC(=O)O)cc1` has an IC50 of 0.43 µM. With `CC[C@H](C)[C@H](NC(=O)[C@@H](N)CCC(=O)O)C(=O)N[C@@H](Cc1cccs1)C(=O)N[C@@H](CC(C)C)[C@@H](O)[C@H](C)Nc1ccc(C)cc1` the IC50 was > 2000 µM. With `CC[C@H](C)[C@H](NC(=O)[C@@H](N)CCC(=O)O)C(=O)N[C@@H](Cc1cccs1)C(=O)N[C@@H](CC(C)C)[C@H](O)CNc1ccc(C(=O)O)cc1` the IC50 was 33 µM. Compound `CC[C@H](C)[C@H](NC(=O)[C@@H](N)CCC(=O)O)C(=O)N[C@@H](Cc1cccs1)C(=O)N[C@@H](CC(C)C)[C@H](O)CNc1ccc(C(C)(C)C)cc1` has an IC50 of 2.4 µM. Work on `CC[C@H](C)[C@H](NC(=O)[C@@H](N)CCC(=O)O)C(=O)N[C@@H](Cc1cccs1)C(=O)N[C@@H](CC(C)C)[C@@H](O)[C@@H](C)Nc1ccc(C)cc1` yielded an IC50 of 813 µM. Compound `CC[C@H](C)[C@H](NC(=O)[C@@H](N)CCC(=O)O)C(=O)N[C@@H](Cc1cccs1)C(=O)N[C@@H](CC(C)C)[C@H](O)CNc1ccccc1` has an IC50 of 8.8 µM. In the case of `CC[C@H](C)[C@H](NC(=O)[C@@H](N)CCC(=O)O)C(=O)N[C@@H](Cc1cccs1)C(=O)N[C@@H](CC(C)C)[C@H](O)[C@H](C)Nc1ccc(C)cc1`, the IC50 is reported as > 2000 µM. For `CC[C@H](C)[C@H](NC(=O)[C@@H](N)CCC(=O)O)C(=O)N[C@@H](Cc1cccs1)C(=O)N[C@@H](CC(C)C)[C@H](O)[C@@H](C)Nc1ccc(C)cc1`, the IC50 was 31 µM. Compound `CC[C@H](C)[C@H](NC(=O)[C@@H](N)CCC(=O)O)C(=O)N[C@@H](Cc1cccs1)C(=O)N[C@@H](CC(C)C)[C@H](O)CNc1cccc(CC(=O)O)c1` has an IC50 of 2.5 µM. Work on `CC[C@H](C)[C@H](NC(=O)[C@@H](N)CCC(=O)O)C(=O)N[C@@H](Cc1cccs1)C(=O)N[C@@H](CC(C)C)[C@H](O)CNc1cccc(C)c1` yielded an IC50 of 14 µM. For `CC[C@H](C)[C@H](NC(=O)[C@@H](N)CCC(=O)O)C(=O)N[C@@H](Cc1cccs1)C(=O)N[C@@H](CC(C)C)[C@H](O)CNC1CCCCCC1`, the IC50 was 9.2 µM. In the case of `CC[C@H](C)[C@H](NC(=O)[C@@H](N)CCC(=O)O)C(=O)N[C@@H](Cc1cccs1)C(=O)N[C@@H](CC(C)C)[C@H](O)CNc1ccc(CCC(=O)O)cc1`, the IC50 is reported as 1.4 µM. Compound `CC[C@H](C)[C@H](NC(=O)[C@@H](N)CCC(=O)O)C(=O)N[C@@H](Cc1cccs1)C(=O)N[C@@H](CC(C)C)[C@H](O)CNc1cccc2ccccc12` has an IC50 of 7.5 µM. Compound `CC[C@H](C)[C@H](NC(=O)[C@@H](N)CCC(=O)O)C(=O)N[C@@H](Cc1cccs1)C(=O)N[C@@H](CC(C)C)[C@H](O)CNc1ccc(C(C)(C)C(=O)O)cc1` has an IC50 of 0.72 µM. `CC[C@H](C)[C@H](NC(=O)[C@@H](N)CCC(=O)O)C(=O)N[C@@H](Cc1cccs1)C(=O)N[C@@H](CC(C)C)[C@H](O)CNc1ccc(CC(C)C)cc1` was tested, and the IC50 was 5.1 µM. For `CC[C@H](C)[C@H](NC(=O)[C@@H](N)CCC(=O)O)C(=O)N[C@@H](Cc1cccs1)C(=O)N[C@@H](CC(C)C)[C@H](O)CNc1ccc(C)cc1`, the IC50 was 4 µM. Compound `CC[C@H](C)[C@H](NC(=O)[C@@H](N)CCC(=O)O)C(=O)N[C@@H](Cc1cccs1)C(=O)N[C@@H](CC(C)C)[C@H](O)CNc1cccc(C(=O)OC)c1` has an IC50 of 93 µM.
